Positions count from the first letter of the chain named. “And” between values parts separate entries of the source, which are not always exact repeats. Identical values can stand only once.
How the values were obtained:
M2R L129^34.51A mutant = biological target: T1, M2R L129^34.51A mutant (Homo sapiens, UniProt P08172, L129A); assay: NanoBiT-GoA dissociation assay, L129A mutant M2R
T1 sequence (P08172 1-466 L129A): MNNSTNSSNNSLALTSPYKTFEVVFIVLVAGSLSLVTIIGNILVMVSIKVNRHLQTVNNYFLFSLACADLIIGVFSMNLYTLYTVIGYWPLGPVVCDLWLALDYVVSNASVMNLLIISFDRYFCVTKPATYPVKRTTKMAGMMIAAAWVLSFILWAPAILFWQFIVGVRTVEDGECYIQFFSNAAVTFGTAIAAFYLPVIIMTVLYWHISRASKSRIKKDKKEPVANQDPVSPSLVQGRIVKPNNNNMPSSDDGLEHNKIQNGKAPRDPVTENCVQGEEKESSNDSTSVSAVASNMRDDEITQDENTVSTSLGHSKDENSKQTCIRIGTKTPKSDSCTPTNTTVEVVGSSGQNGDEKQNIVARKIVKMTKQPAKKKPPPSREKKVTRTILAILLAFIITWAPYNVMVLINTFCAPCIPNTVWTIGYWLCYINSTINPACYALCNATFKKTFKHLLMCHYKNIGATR
Protocol: Plasmid transfection for HEK293A cells (Thermo Fisher Scientific) was performed by combining 25 µl (volume is per 10-cm culture dish) of polyethylenimine solution (1 mg/mL) and a mixture of plasmids each encoding the large fragment (LgBiT)-containing the GαoA subunit (500 ng), the small fragment (SmBiT)-fused Gγ2 subunit with the C68S mutation (2.5 µg) and the untagged Gβ1 subunit (2.5 µg), along with a human, wild-type M2R (1 µg; containing N-terminal HA-derived signal sequence followed by the FLAG-epitope tag). After an incubation for one day, the transfected cells were harvested, pelleted with centrifugation, and suspended in 9 ml of Hank’s balanced saline solution (HBSS) containing 0.01% bovine serum albumin (BSA fatty acid–free grade, SERVA) and 5 mM HEPES (pH 7.4) (assay buffer). The cell suspension was dispensed in a white 96-well plate at a volume of 70 µl per well and mixed with 20 µl of 50 µM coelenterazine (Carbosynth) diluted in the assay buffer. […] Kinetics data points from 5 min to 10 min were averaged and normalized to the initial count and used as a G-protein dissociation index. For the mutant study, the cell culture and the transfection mixture were scaled down to a 6-cm dish (4 ml culture media) and the transfected cells were suspended in 4 ml of the assay buffer and seeded in the 96-well plate at a volume of 80 µL. The G-protein dissociation signals were fitted to a four-parameter sigmoidal concentration-response curve (GraphPad Prism8). For each experiment, we calculated Emax by normalizing Span to the LY2119620-free condition and ∆pEC50 by subtracting pEC50 of the LY2119620-free condition performed in parallel and used the values to denote allosteric modulator activity. Similarly, for the mutant study, we calculated ∆pEC50 by subtracting pEC50 of the WT (1:1) condition performed in parallel.

M2R = biological target: T2, M2R (Homo sapiens, UniProt P08172); assay: biochemical; type: binding; set-up: expressed in transfected cells
T2 sequence (P08172 1-466): T1 sequence (P08172 1-466 L129A) with A129L
Protocol: Purified M2R receptor was reconstituted into high-density lipoprotein (HDL) particles constituting apolipoprotein A1(APOA1) and mixture of POPG: POPC lipids with 3:2 (mol:mol)ratio as previously described. […] Membranes or HDL particles were separated from excess [^3H]-NMS by Whatman GF/B filters using a Brandel 48-well harvester. The bound radioligand were read on a liquid scintillation counter (MicroBeta Jet, PerkinElmer). Data were analyzed by GraphPad Prism 9.2.0.

M2R and GoA = biological target: T3, M2R and GoA (Homo sapiens, UniProt P08172); assay: GTPase-Glo assay (GTP turnover) with purified M2R and GoA; type: biochemical; details: for Residual GTP (%): 90 min, normalized to GoA alone; for GTP-turnover, Fig. 1c (GTPase-Glo luminescence): 100 μM ACh or 10 μM Ixo, M2R-GoA
T3 construct: FLAG (N); 8xHis (C); made in house; host or cells: Sf9 insect cells (receptor)
T3 sequence (P59768 2-68): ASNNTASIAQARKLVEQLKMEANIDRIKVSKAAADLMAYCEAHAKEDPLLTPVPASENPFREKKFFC
T3 sequence (P09471 2-354, further chain): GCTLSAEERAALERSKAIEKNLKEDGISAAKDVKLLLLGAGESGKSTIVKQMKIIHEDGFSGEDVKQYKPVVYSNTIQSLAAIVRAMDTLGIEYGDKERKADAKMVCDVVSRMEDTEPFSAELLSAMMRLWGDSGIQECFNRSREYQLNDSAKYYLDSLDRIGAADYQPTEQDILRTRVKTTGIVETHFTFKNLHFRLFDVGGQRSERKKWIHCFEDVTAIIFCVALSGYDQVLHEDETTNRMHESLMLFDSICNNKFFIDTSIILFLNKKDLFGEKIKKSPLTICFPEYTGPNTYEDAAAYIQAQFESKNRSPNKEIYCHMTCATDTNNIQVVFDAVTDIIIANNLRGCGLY
T3 sequence (P08172 whole entry): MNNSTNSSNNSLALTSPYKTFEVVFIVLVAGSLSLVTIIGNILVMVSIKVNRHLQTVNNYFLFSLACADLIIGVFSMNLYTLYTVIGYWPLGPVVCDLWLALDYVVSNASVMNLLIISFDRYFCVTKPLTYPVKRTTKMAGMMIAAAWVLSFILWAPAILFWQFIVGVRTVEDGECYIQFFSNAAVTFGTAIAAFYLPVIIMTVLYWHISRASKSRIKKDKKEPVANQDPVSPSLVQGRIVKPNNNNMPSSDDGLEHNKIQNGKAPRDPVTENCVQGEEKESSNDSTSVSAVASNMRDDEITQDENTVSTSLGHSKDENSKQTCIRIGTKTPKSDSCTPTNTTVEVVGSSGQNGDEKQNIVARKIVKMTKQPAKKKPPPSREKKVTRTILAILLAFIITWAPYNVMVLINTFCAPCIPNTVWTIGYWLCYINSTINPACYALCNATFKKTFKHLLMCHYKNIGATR
T3 sequence (P62873 whole entry, further chain): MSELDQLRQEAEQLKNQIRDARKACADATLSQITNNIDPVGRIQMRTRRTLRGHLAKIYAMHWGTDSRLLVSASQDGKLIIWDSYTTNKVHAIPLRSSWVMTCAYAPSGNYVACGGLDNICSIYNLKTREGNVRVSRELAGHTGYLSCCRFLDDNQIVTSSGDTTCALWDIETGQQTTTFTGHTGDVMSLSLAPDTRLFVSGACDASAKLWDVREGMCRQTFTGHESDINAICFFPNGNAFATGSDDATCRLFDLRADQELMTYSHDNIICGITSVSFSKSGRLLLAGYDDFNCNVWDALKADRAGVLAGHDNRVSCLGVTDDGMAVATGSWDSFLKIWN
Protocol: The receptors for GTPase-Glo^TM assay were expressed and purified as described above and frozen at −80 °C before use. […] The GTPase reaction was incubated at room temperature (22–25 °C) for different times (15–90 min). […] After incubation, 5 μL reconstituted 1xGTPase-Glo^TM Reagent (Promega) was added to the completed GTPase reaction, mixed briefly and incubated with shaking for 30 min at room temperature (22–25 °C) to convert the remaining GTP into ATP. Then 10 μL Detection Reagent (Promega) was added to the system and incubated for 5-10 min at room temperature (22–25 °C) to convert the ATP into luminescent signals. Luminescence intensity was quantified using a Multimode Plate Reader (PerkinElmer) luminescence counter.

human, wild-type M2R = biological target: T4, human, wild-type M2R (Homo sapiens, UniProt P08172); assay: NanoBiT-G-protein (GoA) dissociation assay, wild-type M2R, HEK293A cells; type: cell-based; details: for NanoBiT-GoA dissociation signal, Mean (Veh = 1.000): n = 4
T4 construct: expressed in transfected cells; host or cells: HEK293A
T4 sequence (P08172 1-466): T1 sequence (P08172 1-466 L129A) with A129L
Protocol: Plasmid transfection for HEK293A cells (Thermo Fisher Scientific) was performed by combining 25 µl (volume is per 10-cm culture dish) of polyethylenimine solution (1 mg/mL) and a mixture of plasmids each encoding the large fragment (LgBiT)-containing the GαoA subunit (500 ng), the small fragment (SmBiT)-fused Gγ2 subunit with the C68S mutation (2.5 µg) and the untagged Gβ1 subunit (2.5 µg), along with a human, wild-type M2R (1 µg; containing N-terminal HA-derived signal sequence followed by the FLAG-epitope tag). After an incubation for one day, the transfected cells were harvested, pelleted with centrifugation, and suspended in 9 ml of Hank’s balanced saline solution (HBSS) containing 0.01% bovine serum albumin (BSA fatty acid–free grade, SERVA) and 5 mM HEPES (pH 7.4) (assay buffer). The cell suspension was dispensed in a white 96-well plate at a volume of 70 µl per well and mixed with 20 µl of 50 µM coelenterazine (Carbosynth) diluted in the assay buffer. After 2 h incubation at room temperature, the plate was measured for baseline luminescence (SpectraMax L, Molecular Devices) and 10 µl of titrated concentrations of LY2119620 diluted in the assay buffer were added. […] Kinetics data points from 5 min to 10 min were averaged and normalized to the initial count and used as a G-protein dissociation index. […] The G-protein dissociation signals were fitted to a four-parameter sigmoidal concentration-response curve (GraphPad Prism8). For each experiment, we calculated Emax by normalizing Span to the LY2119620-free condition and ∆pEC50 by subtracting pEC50 of the LY2119620-free condition performed in parallel and used the values to denote allosteric modulator activity.

Mock = assay: NanoBiT-GoA dissociation assay, Mock-transfected cells (control); type: cell-based

Q: What does the source list for CC(=O)OCC[N+](C)(C)C [ACh, acetylcholine]?
A: ∆pEC50 (M2R L129^34.51A mutant): -0.530 and -0.558 and -0.440; NanoBiT-GoA dissociation signal, Mean (Veh = 1.000) (M2R L129^34.51A mutant; ACh Log [M] -4, n = 3): 0.350; NanoBiT-GoA dissociation signal, Mean (Veh = 1.000) (M2R L129^34.51A mutant; ACh Log [M] -5, n = 3): 0.368; NanoBiT-GoA dissociation signal, Mean (Veh = 1.000) (M2R L129^34.51A mutant; ACh Log [M] -6, n = 3): 0.470; NanoBiT-GoA dissociation signal, Mean (Veh = 1.000) (M2R L129^34.51A mutant; ACh Log [M] -8, n = 3): 0.926; NanoBiT-GoA dissociation signal, Mean (Veh = 1.000) (M2R L129^34.51A mutant; ACh Log [M] -9, n = 3): 0.991; NanoBiT-GoA dissociation signal, Mean (Veh = 1.000) (M2R L129^34.51A mutant; ACh Log [M] -10, n = 3): 0.994; increase of affinity on addition of GoA (M2R; M2R in HDL particles): ~ 65 fold; competition curve data, Fig. 1b ([3H]-NMS binding) (M2R; log[M] -4, without GoA): 5.782 and 5.65 and 7.077; competition curve data, Fig. 1b ([3H]-NMS binding) (M2R; log[M] -5, +GoA): 8.6818 and 10.1951 and 7.089; competition curve data, Fig. 1b ([3H]-NMS binding) (M2R; log[M] -5, without GoA): 30.6813 and 33.2587 and 33.4266; competition curve data, Fig. 1b ([3H]-NMS binding) (M2R; log[M] -6, +GoA): 19.1734 and 19.6734 and 19.2354; competition curve data, Fig. 1b ([3H]-NMS binding) (M2R; log[M] -6, without GoA): 75.6364 and 71.4046; competition curve data, Fig. 1b ([3H]-NMS binding) (M2R; log[M] -7, +GoA): 35.8423 and 48.5862 and 43.4886; competition curve data, Fig. 1b ([3H]-NMS binding) (M2R; log[M] -7, without GoA): 93.5585 and 94.8412 and 97.6703; competition curve data, Fig. 1b ([3H]-NMS binding) (M2R; log[M] -8, +GoA): 63.401 and 72.72 and 79.9283; competition curve data, Fig. 1b ([3H]-NMS binding) (M2R; log[M] -8, without GoA): 87.5165 and 90.6813 and 92.0839; competition curve data, Fig. 1b ([3H]-NMS binding) (M2R; log[M] -9, +GoA): 85.6233 and 86.2605 and 91.0793; competition curve data, Fig. 1b ([3H]-NMS binding) (M2R; log[M] -9, without GoA): 98.6534 and 93.3786 and 102.25; competition curve data, Fig. 1b ([3H]-NMS binding) (M2R; log[M] -10, +GoA): 98.2875 and 107.686 and 94.0263; competition curve data, Fig. 1b ([3H]-NMS binding) (M2R; log[M] -10, without GoA): 99.5165 and 100.667 and 99.8162; binding affinity lower than Ixo (M2R; purified M2R reconstituted in HDL particles): ~ 90 fold; Residual GTP (%) (M2R and GoA; +DMSO): 45.3131% and 35.9349% and 31.3573% and 30.3217%; Residual GTP (%) (M2R and GoA; +LY2119620 (100 μM)): 63.4937% and 52.5673% and 44.2408% and 50.614% and 40.1818%; GTP turnover rate and efficacy (M2R and GoA; agonist-bound M2R): much lower GTP turnover rate and efficacy than Ixo-bound M2R; GTP-turnover, Fig. 1c (GTPase-Glo luminescence) (M2R and GoA; time 15 min): 580068 and 653066 and 555333 and 703107; GTP-turnover, Fig. 1c (GTPase-Glo luminescence) (M2R and GoA; time 30 min): 338018 and 388059 and 371258 and 437553; GTP-turnover, Fig. 1c (GTPase-Glo luminescence) (M2R and GoA; time 45 min): 365372 and 350617 and 319511 and 370440; GTP-turnover, Fig. 1c (GTPase-Glo luminescence) (M2R and GoA; time 60 min): 469821 and 332109 and 488525 and 361230; GTP-turnover, Fig. 1c (GTPase-Glo luminescence) (M2R and GoA; time 90 min): 354237 and 250414 and 339305 and 252170; ∆pEC50 (human, wild-type M2R; WT (1:1), reference): 0.000; NanoBiT-GoA dissociation signal, Mean (Veh = 1.000) (human, wild-type M2R; WT (1:1), ACh Log [M] -4): 0.337; NanoBiT-GoA dissociation signal, Mean (Veh = 1.000) (human, wild-type M2R; WT (1:1), ACh Log [M] -5): 0.351; NanoBiT-GoA dissociation signal, Mean (Veh = 1.000) (human, wild-type M2R; WT (1:1), ACh Log [M] -6): 0.394; NanoBiT-GoA dissociation signal, Mean (Veh = 1.000) (human, wild-type M2R; WT (1:1), ACh Log [M] -7): 0.558; NanoBiT-GoA dissociation signal, Mean (Veh = 1.000) (human, wild-type M2R; WT (1:1), ACh Log [M] -8): 0.840; NanoBiT-GoA dissociation signal, Mean (Veh = 1.000) (human, wild-type M2R; WT (1:1), ACh Log [M] -9): 0.978; ∆pEC50 (human, wild-type M2R; WT (1:2)): -0.277 and -0.205 and -0.364 and -0.275; NanoBiT-GoA dissociation signal, Mean (Veh = 1.000) (human, wild-type M2R; WT (1:2), ACh Log [M] -4): 0.345; NanoBiT-GoA dissociation signal, Mean (Veh = 1.000) (human, wild-type M2R; WT (1:2), ACh Log [M] -5): 0.355; NanoBiT-GoA dissociation signal, Mean (Veh = 1.000) (human, wild-type M2R; WT (1:2), ACh Log [M] -6): 0.427; NanoBiT-GoA dissociation signal, Mean (Veh = 1.000) (human, wild-type M2R; WT (1:2), ACh Log [M] -7): 0.636; NanoBiT-GoA dissociation signal, Mean (Veh = 1.000) (human, wild-type M2R; WT (1:2), ACh Log [M] -8): 0.898; NanoBiT-GoA dissociation signal, Mean (Veh = 1.000) (human, wild-type M2R; WT (1:2), ACh Log [M] -9): 0.988; NanoBiT-GoA dissociation signal, Mean (Veh = 1.000) (Mock; ACh Log [M] -4, n = 3): 0.999; NanoBiT-GoA dissociation signal, Mean (Veh = 1.000) (Mock; ACh Log [M] -5, n = 3): 0.997; NanoBiT-GoA dissociation signal, Mean (Veh = 1.000) (Mock; ACh Log [M] -6, n = 3): 0.997; NanoBiT-GoA dissociation signal, Mean (Veh = 1.000) (Mock; ACh Log [M] -7, n = 3): 0.998; NanoBiT-GoA dissociation signal, Mean (Veh = 1.000) (Mock; ACh Log [M] -8, n = 3): 1.007; NanoBiT-GoA dissociation signal, Mean (Veh = 1.000) (Mock; ACh Log [M] -9, n = 3): 1.008; NanoBiT-GoA dissociation signal, Mean (Veh = 1.000) (Mock; ACh Log [M] -10, n = 3): 1.011

From paper PMC9870890 (Nature Communications, 2023)
